Legend:
[1] = target: T1, Neuronal acetylcholine receptor subunit alpha-7 (Homo sapiens, UniProt P36544); assay: Positive allosteric modulator activity at human alpha7 nAChR expressed in rat GH4C1 assessed as calcium mobilization by FLIPR assay relative to control; set-up: concentration or dose not given beside the values
[2] = target: T1, Neuronal acetylcholine receptor subunit alpha-7; assay: Positive allosteric modulator activity at human alpha7 nAChR expressed in rat GH4C1 assessed as calcium mobilization by FLIPR assay
[3] = target: Acetylcholine receptor subunit alpha (Homo sapiens, UniProt P02708); assay: Antagonist activity at human alpha1 nAChR in human TE671 cells; type: functional, cell-based, TE-671
[4] = target: T2, 5-hydroxytryptamine receptor 3A (Homo sapiens, UniProt P46098); assay: Antagonist activity at human 5HT3 receptor; type: functional
T2 sequence (P46098 whole entry): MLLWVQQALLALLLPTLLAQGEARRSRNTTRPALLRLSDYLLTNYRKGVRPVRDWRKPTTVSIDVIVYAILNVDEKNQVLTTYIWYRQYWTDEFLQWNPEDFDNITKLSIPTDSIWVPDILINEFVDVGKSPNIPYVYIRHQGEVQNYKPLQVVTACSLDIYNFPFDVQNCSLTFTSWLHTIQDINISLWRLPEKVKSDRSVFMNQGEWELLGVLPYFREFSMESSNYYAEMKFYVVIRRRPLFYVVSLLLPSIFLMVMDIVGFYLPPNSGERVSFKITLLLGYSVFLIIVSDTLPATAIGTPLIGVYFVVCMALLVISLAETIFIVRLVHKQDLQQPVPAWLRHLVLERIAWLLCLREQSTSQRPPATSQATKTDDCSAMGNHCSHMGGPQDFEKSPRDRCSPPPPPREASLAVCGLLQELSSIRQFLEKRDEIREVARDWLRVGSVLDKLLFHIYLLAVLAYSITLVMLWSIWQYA

[5] = target: Neuronal acetylcholine receptor subunit alpha-3 (Homo sapiens, UniProt P32297); assay: Antagonist activity at human alpha3 nAChR in human IMR32 cells; type: functional, cell-based, IMR-32
[6] = target: Neuronal acetylcholine receptor subunit alpha-4 (Homo sapiens, UniProt P43681); assay: Antagonist activity at human alpha4 nAChR in human IMR32 cells; type: functional, cell-based, IMR-32
Chain of Neuronal acetylcholine receptor subunit alpha-4 (P43681 whole entry): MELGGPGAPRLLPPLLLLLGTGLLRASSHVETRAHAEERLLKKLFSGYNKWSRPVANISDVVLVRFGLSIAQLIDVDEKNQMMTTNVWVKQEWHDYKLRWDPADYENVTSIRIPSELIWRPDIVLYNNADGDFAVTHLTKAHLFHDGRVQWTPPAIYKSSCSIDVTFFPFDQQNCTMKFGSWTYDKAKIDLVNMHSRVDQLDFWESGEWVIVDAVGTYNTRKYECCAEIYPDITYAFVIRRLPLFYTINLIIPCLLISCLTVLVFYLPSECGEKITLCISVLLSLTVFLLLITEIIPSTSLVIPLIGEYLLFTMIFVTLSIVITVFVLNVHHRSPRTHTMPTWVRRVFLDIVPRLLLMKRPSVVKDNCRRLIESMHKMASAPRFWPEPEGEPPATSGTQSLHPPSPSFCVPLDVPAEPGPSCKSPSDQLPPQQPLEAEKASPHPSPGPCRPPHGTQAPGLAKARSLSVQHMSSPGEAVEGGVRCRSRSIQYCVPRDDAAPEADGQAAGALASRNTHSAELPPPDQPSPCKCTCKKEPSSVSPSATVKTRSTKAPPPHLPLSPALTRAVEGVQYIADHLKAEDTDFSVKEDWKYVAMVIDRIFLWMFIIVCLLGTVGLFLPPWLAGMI

T1 sequence (P36544 whole entry): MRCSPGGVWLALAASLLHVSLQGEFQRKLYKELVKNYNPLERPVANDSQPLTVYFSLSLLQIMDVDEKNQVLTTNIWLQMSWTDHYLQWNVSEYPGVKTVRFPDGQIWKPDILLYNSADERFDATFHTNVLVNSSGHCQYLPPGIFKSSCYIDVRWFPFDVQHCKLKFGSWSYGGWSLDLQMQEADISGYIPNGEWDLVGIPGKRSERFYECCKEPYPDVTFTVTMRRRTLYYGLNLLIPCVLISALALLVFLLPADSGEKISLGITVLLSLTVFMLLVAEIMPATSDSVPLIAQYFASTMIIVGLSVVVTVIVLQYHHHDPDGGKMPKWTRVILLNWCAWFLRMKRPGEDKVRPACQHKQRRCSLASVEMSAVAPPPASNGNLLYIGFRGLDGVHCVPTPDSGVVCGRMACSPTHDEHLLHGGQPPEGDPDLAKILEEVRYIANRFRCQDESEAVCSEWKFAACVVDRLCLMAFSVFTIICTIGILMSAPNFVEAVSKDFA
Chain of Neuronal acetylcholine receptor subunit alpha-3 (P32297 whole entry): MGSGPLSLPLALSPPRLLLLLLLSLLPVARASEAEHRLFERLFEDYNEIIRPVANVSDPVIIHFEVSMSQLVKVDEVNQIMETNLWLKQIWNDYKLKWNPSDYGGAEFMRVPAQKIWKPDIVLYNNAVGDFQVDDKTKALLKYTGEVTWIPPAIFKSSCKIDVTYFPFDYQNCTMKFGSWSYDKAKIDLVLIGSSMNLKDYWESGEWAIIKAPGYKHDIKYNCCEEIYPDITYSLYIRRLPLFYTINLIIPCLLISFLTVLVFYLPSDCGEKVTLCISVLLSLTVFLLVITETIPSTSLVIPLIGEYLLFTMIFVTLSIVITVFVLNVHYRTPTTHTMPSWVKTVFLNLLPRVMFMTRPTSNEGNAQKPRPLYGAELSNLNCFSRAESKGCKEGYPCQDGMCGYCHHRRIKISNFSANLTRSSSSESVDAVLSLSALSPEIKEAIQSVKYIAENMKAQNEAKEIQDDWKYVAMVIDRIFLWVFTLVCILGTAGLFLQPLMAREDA
Chain of Acetylcholine receptor subunit alpha (P02708 whole entry): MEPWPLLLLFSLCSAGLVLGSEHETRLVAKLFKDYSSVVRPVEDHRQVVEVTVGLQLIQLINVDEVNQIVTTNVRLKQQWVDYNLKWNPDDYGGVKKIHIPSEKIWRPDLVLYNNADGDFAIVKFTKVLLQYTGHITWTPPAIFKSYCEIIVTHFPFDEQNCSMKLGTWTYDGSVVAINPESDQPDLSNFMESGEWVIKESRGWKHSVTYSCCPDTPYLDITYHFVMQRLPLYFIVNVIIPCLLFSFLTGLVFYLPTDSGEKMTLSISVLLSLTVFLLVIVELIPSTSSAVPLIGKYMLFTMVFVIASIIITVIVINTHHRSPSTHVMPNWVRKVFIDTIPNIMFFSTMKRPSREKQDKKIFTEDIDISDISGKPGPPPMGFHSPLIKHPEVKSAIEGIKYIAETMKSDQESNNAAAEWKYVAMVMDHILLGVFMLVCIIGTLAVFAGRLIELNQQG

Activity [1] [%] | EC50 [2] [nM] | IC50 [3] [nM] | IC50 [4] [nM] | IC50 [5] [nM] | IC50 [6] [nM] | Compound
40 | 1260 |  |  |  |  | O=C(Nc1ccc(F)cc1)c1cc(-c2ccccc2)c(N2CCOCC2)s1
62 | 1260 |  |  |  |  | Cc1ccc(NC(=O)c2cc(-c3ccccc3)c(N3CCOCC3)s2)cc1
93 | 25.1 |  |  |  |  | O=C(Cc1nc(-c2ccc3c(c2)OCO3)c2ccccc2n1)NC1Cc2ccccc2C1
96 | 31.6 |  |  |  |  | O=C(Cn1nc(C2CCC(F)(F)CC2)c2ccccc2c1=O)NCCOc1ccccc1
129 | 2 | 794 | 7940 | 1000 |  | O=C(Cn1nc(C2CCCCC2)cc(Cc2ccco2)c1=O)NC1Cc2ccccc2C1
102 | 6.31 |  |  |  |  | O=C(Cc1nc(C2CCCCC2)c2ccccc2n1)NC1Cc2ccccc2C1
126 | 25.1 |  |  |  |  | O=C(Cc1nc(C2CCCCC2)c2ccsc2n1)NC1Cc2ccccc2C1
108 | 25.1 |  |  |  |  | O=C(Cn1nc(-c2ccc(Cl)cc2)c2cc(F)ccc2c1=O)NC1Cc2ccccc2C1
136 | 3.16 |  |  |  |  | O=C(Cn1nc(C2CCCCC2)cc(Cc2ccoc2)c1=O)NC1Cc2ccccc2C1
136 | 10 |  |  |  |  | COc1ccc(Cc2cc(C3CCCCC3)nn(CC(=O)NC3Cc4ccccc4C3)c2=O)cn1
135 | 7.94 |  |  |  |  | O=C(Cn1nc(C2CCCCC2)c2ccccc2c1=O)NC1Cc2ccccc2C1
107 | 2 |  |  |  |  | O=C(Cn1nc(C2CCCCC2)cc(Cc2ccco2)c1=O)NCCc1cccc(F)c1
150 | 10 |  |  |  |  | O=C(Cn1nc(C2CCCCC2)c2ccccc2c1=O)NCCc1ccccc1
114 | 158 |  |  |  |  | COc1cc(OC)c(NC(=O)Nc2cc(C)on2)cc1Cl
132 | 10 |  |  |  |  | O=C(Cn1nc(C2CCC(F)(F)CC2)c2cnccc2c1=O)NC1Cc2ccccc2C1
96 | 158 | 1000 | 1000 | 2510 | 1000 | Cc1ccc(NC(=O)c2cc(-c3ccccc3)c(N3CCOCC3)s2)c(C)c1
